These results are taken from ChEMBL document CHEMBL1671777, “X-ray crystal structure and binding mode analysis of human S-adenosylhomocysteine hydrolase complexed with novel mechanism-based inhibitors, haloneplanocin A analogues” (J Med Chem, 2011).

For the experiment, the target named is Adenosylhomocysteinase (Homo sapiens, UniProt P23526). Description: Inhibition of human placental AdoHcy hydrolase expressed in Escherichia coli JM109.
Chain of Adenosylhomocysteinase (P23526 whole entry): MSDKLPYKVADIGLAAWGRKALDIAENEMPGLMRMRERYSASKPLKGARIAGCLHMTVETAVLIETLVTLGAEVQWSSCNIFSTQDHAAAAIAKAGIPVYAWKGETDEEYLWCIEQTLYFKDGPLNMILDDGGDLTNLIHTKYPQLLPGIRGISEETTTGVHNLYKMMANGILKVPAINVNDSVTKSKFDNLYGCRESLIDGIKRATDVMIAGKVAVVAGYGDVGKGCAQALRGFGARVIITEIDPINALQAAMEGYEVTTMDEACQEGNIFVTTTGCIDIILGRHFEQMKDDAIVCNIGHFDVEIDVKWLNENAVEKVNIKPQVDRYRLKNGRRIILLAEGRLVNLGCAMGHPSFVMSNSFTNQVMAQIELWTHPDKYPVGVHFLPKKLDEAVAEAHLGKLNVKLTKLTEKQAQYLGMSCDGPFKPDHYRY
In the case of `Nc1ncnc2c1ncn2[C@@H]1C=C(CO)[C@@H](O)[C@H]1O` [NEOPLANOCIN A], it took 0.87 µM to reach half-maximal inhibition (IC50).
For `Nc1ncnc2c1ncn2[C@@H]1C(I)=C(CO)[C@@H](O)[C@H]1O` the value was greater than 1000 µM; for `Nc1ncnc2c1ncn2[C@@H]1C(I)=C[C@@H](O)[C@H]1O`, greater than 1000 µM.
Take `Nc1ncnc2c1ncn2[C@@H]1C=C[C@@H](O)[C@H]1O`: half-maximal inhibition (IC50) required 5.83 µM.
Regarding `Nc1ncnc2c1ncn2[C@@H]1C(Cl)=C(CO)[C@@H](O)[C@H]1O`, the IC50 (commonly the midpoint of a concentration-inhibition curve) came to 36.5 µM.
For `Nc1ncnc2c1ncn2[C@@H]1C(Br)=C(CO)[C@@H](O)[C@H]1O` the value was 60.2 µM.
In turn, `Nc1ncnc2c1ncn2[C@@H]1C(Cl)=C[C@@H](O)[C@H]1O` came in with an IC50 greater than 1000 µM.
On to `Nc1ncnc2c1ncn2[C@@H]1C(F)=C[C@@H](O)[C@H]1O`, for which the IC50 worked out at 7.67 µM.
`Nc1ncnc2c1ncn2[C@@H]1C(Br)=C[C@@H](O)[C@H]1O` returned an IC50 greater than 1000 µM.
